# Experimental data: patent publication US20200308165A1, “Compounds as Ras Inhibitors and Use Thereof” (D.E. Shaw Research, LLC, priority 2017, published 2020)
# Experiments:
# [1] = biological target: Ras protein (Homo sapiens, UniProt P01116); experiment: GDPx_Icagen_IC50: SOS1-mediated guanine nucleotide exchange rate of Ras (mant-GDP); format: biochemical; details: SOS1-initiated exchange
# Text: (§1) In some embodiments, the IC50 assay measures the reduction effect of a given compound on the guanine nucleotide-echange rate of Ras protein in the presence of guanine nucleotide exchange protein SOS1, which is a Ras activator. In the assay GDP-loaded Ras was first prepared in a buffer containing the compound at certain concentration and fluorescent guanine nucleotide (mant-GDP (used in Icagene assay) or mant-GTP (used in other IC50 assays). The guanine nucleotide exchange was initiated by the addition of the SOS1 and its rate was reflected in the rate of fluorescence change as a function of time, which was monitored by a reader. The experiment was repeated at different compound concentrations and the IC50 of the compound was defined as the compound concentration at which half of its maximal reduction effect on the guanine nucleotide exchange rate is achieved. In other embodiments, other Ras activator proteins may be used. Non-limiting examples of other Ras activator proteins include RasGRP (Ras guanyl-releasing protein).
# Example 17. Evaluation of Biological Activities: GDPx_Icagen_ICso
# as §1, with “The IC50” for “In some embodiments, the IC50”, “guanine nucleotide-exchange” for “guanine nucleotide-echange”, “Ras is” for “Ras was”, “nucleotide (mant-GDP).” for “nucleotide (mant-GDP (used in Icagene assay) or mant-GTP (used in other IC50 assays).”, “achieved.” for “achieved. In other embodiments, other Ras activator proteins may be used. Non-limiting examples of other Ras activator proteins include RasGRP (Ras guanyl-releasing protein).”
# [2] = biological target: T1, KRAS4B (wild type) (Homo sapiens, UniProt P01116); experiment: K-Ras Nucleotide Exchange Assay-384 (SOS Exchange Assay by Cytoskeleton, GTPx_Cyt_IC50); format: biochemical; details: 1 μM KRAS4B, 0.05 μM SOS1, 1.5 μM mant-GDP
# T1 construct: purchased Cytoskeleton CS-RS03 (K-Ras4B); CS-SOS1-A (SOS1)
# T1 sequence (P01116 1-188 isoform P01116-2): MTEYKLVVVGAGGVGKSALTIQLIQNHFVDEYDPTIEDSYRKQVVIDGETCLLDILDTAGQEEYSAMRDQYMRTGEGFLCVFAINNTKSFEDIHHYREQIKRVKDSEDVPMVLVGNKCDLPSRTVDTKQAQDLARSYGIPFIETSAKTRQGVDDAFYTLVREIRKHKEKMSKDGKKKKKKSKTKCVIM
# Method: Example 16. Evaluation of Biological Activities: K-Ras Nucleotide Exchange Assay-384 (SOS Exchange Assay by Cytoskeleton (GTPx_Cyt_IC50))
# This assay is used to evaluate inhibitors of K-ras, by monitoring the inhibition of nucleotide exchange over time, in the presence of the protein SOS.
# 384-well black, untreated plates (Corning 3820 with NBS or 3821 untreated) were used. K-Ras4B Protein was used, which is wild-type (Cytoskeleton #CS-RS03) with a concnetration of 5 mg/ml, or 200 μM. Human SOS1 Protein, Exchange Domain 564-1049 (Cytoskeleton # CS-SOS1-A) was used in a concentration of 3.03 mg/ml or 50 μM. Mant-GDP triethylammonium salt solution was purchased from Sigma (catalog No. 69244). 1M stock solution of Hepes was purchased from Sigma (catalog No. H9897). 1M stock solution of MgCl2 was purchased from Sigma (catalog No. M4880). CHAPS, 3% was purchased from Sigma (catalog No. C5070). Nonidet P40 was purchased from Sigma. KOH pellets were purchased from Sigma.
# K-ras buffer containing 40 mM Hepes, 10 mM MgCl2, 0.05% CHAPS, 0.01% NP40 with a pH 7.5 was prepared as follows: to a Buffer base containing 4 ml 1M Hepes, 1 ml MgCl2,
# 93.3 ml d-H2O, pH 7.5 (with KOH pellets), 1.7 ml 3% CHAPS was added, followed by the addition of 1 ml 1% NP40.
# Final Conditions of the method included 1 μM KRAS4B (wild type), 0.05 μM SOS1, 1.5 μM mant-GDP. Reagent Preparation included: thawing aliquots of KRAS, SOS, and mant-GDP; preparing 3x KRAS (3 uM) in assay buffer; preparing 3x SOS/mant-GDP (150 nM/4.5 uM) in assay buffer; and preparing 3x compounds in assay buffer.
# Assay Procedure (1536) used 3.3 μl, 3x Kras, 3.3 μl 3x compound with preincubate 0 hour, and […] 3x SOS/mant-GDP. A kinetic read measuring fluorescence at 360_450 was performed for 30 min at 30 second intervals.
# Reference compound SCH 54292 (reversible inhibitor) at about 100 μM was used with no preincubation. Reagents were only stable for 45 min on ice, and therefore were prepared fresh before each assay. Partial plates (up to 9 columns) were run at a time to minimize effects due to the amount of time it takes to read a whole plate. SOS/mant-GDP were added with an automated pipettor to initiate all reactions at the same time. Assay was typically performed at 0.5% solution in DMSO (compounds prepared in 1.5% DMSO initially).
# Clariostar Settings were as follows. Test Name was Kras Kinetic 360-450. Basic settings of the test included Measurement type as Fluorescence (FI), and Microplate name as Corning 3820. Plate mode settings included 61 cycles, 30 second cycle time, and 10 flashes per well. Optic settings were as follows. Excitation wavelength was 360 nm. Emission wavelength was 450 nM. Excitation bandwidth was 12 nm. Emission bandwidth was 12 nm. Dichroic filter 405 was used. D6 Well(s) was used for gain adjustment. No shaking was used. General settings were as follows. Top optic was used. Settling time was 0.1 second. Reading direction was bidirectional, horizontal left to right, and bottom to top. The target temperature was 25° C.
# Sequence of Ras protein (P01116 1-188 isoform P01116-2): as above
Compound,IC50 [1] [nM],IC50 [2] [nM]
"O=c1cc(CSc2ncccn2)[nH]n1-c1nc2ccccc2[nH]1 [Compound 156, 2-(1H-benzo[d]imidazol-2-yl)-5-((pyrimidin-2-ylthio)methyl)-1,2-dihydro-3H-pyrazol-3-one]",3000,7000
"[N-]=[N+]=NCc1ccc(SCc2cc(=O)n(-c3nc4ccccc4[nH]3)[nH]2)cc1 [Compound 162, 5-(((4-(azidomethyl)phenyl)thio)methyl)-2-(1H-benzo[d]imidazol-2-yl)-1,2-dihydro-3H-pyrazol-3-one]",100000,1400
"Cc1cc(C)nc(CSCc2cc(=O)n(-c3nc4ccccc4[nH]3)[nH]2)n1 [Compound 164, 2-(1H-benzo[d]imidazol-2-yl)-5-((((4,6-dimethylpyrimidin-2-yl)methyl)thio)methyl)-1,2-dihydro-3H-pyrazol-3-one]",22000,630
"Cc1cc(C)nc(SCc2cc(=O)n(-c3ccccn3)n2C)n1 [Compound 165, 5-(((4,6-dimethylpyrimidin-2-yl)thio)methyl)-1-methyl-2-(pyridin-2-yl)-1,2-dihydro-3H-pyrazol-3-one]",200000,300000
"O=c1cc(CSc2ccccc2)[nH]n1-c1cnccn1 [Compound 166, 5-((phenylthio)methyl)-2-(pyrazin-2-yl)-1,2-dihydro-3H-pyrazol-3-one]",48800,331000
"Cc1cccc(-n2[nH]c(CSc3ccccc3)cc2=O)n1 [Compound 169, 2-(6-methylpyridin-2-yl)-5-((phenylthio)methyl)-1,2-dihydro-3H-pyrazol-3-one]",7000,2600
"Cn1c(-n2[nH]c(CSc3ccccc3)cc2=O)nc2ccccc21 [Compound 170, 2-(1-methyl-1H-benzo[d]imidazol-2-yl)-5-((phenylthio)methyl)-1,2-dihydro-3H-pyrazol-3-one]",11900,6100
"Cc1ccnc(-n2[nH]c(CSc3ccccc3)cc2=O)c1 [Compound 174, 2-(4-methylpyridin-2-yl)-5-((phenylthio)methyl)-1,2-dihydro-3H-pyrazol-3-one]",9300,2700
"Cc1cc(C)nc(SCc2cc(=O)n(-c3nc4ccccc4s3)[nH]2)n1 [Compound 184, 2-(benzo[d]thiazol-2-yl)-5-(((4,6-dimethylpyrimidin-2-yl)thio)methyl)-1,2-dihydro-3H-pyrazol-3-one]",5800,13600
"O=c1cc(CSc2ccccn2)[nH]n1-c1nc2ccccc2s1 [Compound 185, 2-(benzo[d]thiazol-2-yl)-5-((pyridin-2-ylthio)methyl)-1,2-dihydro-3H-pyrazol-3-one]",5900,340000

# These reach a lower IC50 [1]. Values come first.
IC50 [1] [nM],IC50 [2] [nM],Compound
600,610,"Cc1csc(SCc2cc(=O)n(-c3nc4ccccc4[nH]3)[nH]2)n1 [Compound 152, 2-(1H-benzo[d]imidazol-2-yl)-5-(((4-methylthiazol-2-yl)thio)methyl)-1,2-dihydro-3H-pyrazol-3-one]"
2000,800,"O=c1cc(CSc2nnc(-c3ccccc3)o2)[nH]n1-c1nc2ccccc2[nH]1 [Compound 153, 2-(1H-benzo[d]imidazol-2-yl)-5-(((5-phenyl-1,3,4-oxadiazol-2-yl)thio)methyl)-1,2-dihydro-3H-pyrazol-3-one]"
300,1300,"O=c1cc(CSc2nc3cc(Cl)ccc3s2)[nH]n1-c1nc2ccccc2[nH]1 [Compound 154, 2-(1H-benzo[d]imidazol-2-yl)-5-(((5-chlorobenzo[d]thiazol-2-yl)thio)methyl)-1,2-dihydro-3H-pyrazol-3-one]"
200,530,"O=c1cc(CSc2ccc(Br)cn2)[nH]n1-c1nc2ccccc2[nH]1 [Compound 158, 2-(1H-benzo[d]imidazol-2-yl)-5-(((5-bromopyridin-2-yl)thio)methyl)-1,2-dihydro-3H-pyrazol-3-one]"
500,1000,"NC(=O)c1cccc(SCc2cc(=O)n(-c3nc4ccccc4[nH]3)[nH]2)c1 [Compound 159, 3-(((1-(1H-benzo[d]imidazol-2-yl)-5-oxo-2,5-dihydro-1H-pyrazol-3-yl)methyl)thio)benzamide]"
500,1000,"CN1CCN(Cc2ccc(SCc3cc(=O)n(-c4nc5ccccc5[nH]4)[nH]3)cc2)CC1 [Compound 163, 2-(1H-benzo[d]imidazol-2-yl)-5-(((4-((4-methylpiperazin-1-yl)methyl)phenyl)thio)methyl)-1,2-dihydro-3H-pyrazol-3-one]"
200,300000,"O=c1cc(CSc2ccccc2Cl)[nH]n1-c1nc2ccccc2[nH]1 [Compound 167, 2-(1H-benzo[d]imidazol-2-yl)-5-(((2-chlorophenyl)thio)methyl)-1,2-dihydro-3H-pyrazol-3-one]"
2300,7000,"O=c1cc(CSc2ccncc2)[nH]n1-c1nc2ccccc2[nH]1 [Compound 168, 2-(1H-benzo[d]imidazol-2-yl)-5-((pyridin-4-ylthio)methyl)-1,2-dihydro-3H-pyrazol-3-one]"
170,100000,"O=c1cc(CSc2cccc(Cl)c2)[nH]n1-c1nc2ccccc2[nH]1 [Compound 171, 2-(1H-benzo[d]imidazol-2-yl)-5-(((3-chlorophenyl)thio)methyl)-1,2-dihydro-3H-pyrazol-3-one]"
200,800,"O=c1cc(CSc2ccc(Cl)c(Cl)c2)[nH]n1-c1nc2ccccc2[nH]1 [Compound 172, 2-(1H-benzo[d]imidazol-2-yl)-5-(((3,4-dichlorophenyl)thio)methyl)-1,2-dihydro-3H-pyrazol-3-one]"
500,100000,"N#Cc1cccc(SCc2cc(=O)n(-c3nc4ccccc4[nH]3)[nH]2)c1 [Compound 173, 3-(((1-(1H-benzo[d]imidazol-2-yl)-5-oxo-2,5-dihydro-1H-pyrazol-3-yl)methyl)thio)benzonitrile]"
200,300000,"O=c1cc(CSc2ccc(Cl)cc2)[nH]n1-c1nc2ccccc2[nH]1 [Compound 183, 2-(1H-benzo[d]imidazol-2-yl)-5-(((4-chlorophenyl)thio)methyl)-1,2-dihydro-3H-pyrazol-3-one]"
1300,500000,"Cc1ccc(SCc2cc(=O)n(-c3nc4ccccc4[nH]3)[nH]2)cc1 [Compound 186, 2-(1H-benzo[d]imidazol-2-yl)-5-((p-tolylthio)methyl)-1,2-dihydro-3H-pyrazol-3-one]"
